Series [1] has as its system male Sprague/Dawley (SD) rats. Particulars: s.c. twice a day; previous study, Lai et al.; cited from earlier work.
The test system of series [2] is left ventricle of male Sprague/Dawley (SD) rats. The series is described as follows: Cardiac gene expression (real-time RT-PCR) in rats treated with fluprostenol and/or IFN-γ. Particulars: normalized to GAPDH, FIG. 6. Type of series: in vivo, rat. The text has this: FIGS. 6A–6D Bargraphs showing the effect of fluprostenol (FLUP) and IFN-γ on: A Skeletal actin (SKA); B Sarcoplasmic reticulum calcium ATPase (SRCA); C Collagen I (COL I); D Atrial natriuretic factor (ANF) expression. Expression levels are normalized to glyceraldehyde-3-phosphate dehydrogenase (GAPDH) message. VEH is vehicle. There were 7 animals per group and the data are presented as the mean±SEM. P<0.05 vs VEH group.
RNA preparation Total RNA was isolated using RNeasy Maxi Columns (Qïägen) according to the manufacturer's instructions.
RT-PCR Real-time RT-PCR (TaqMan) technology was used to compare the gene expression between the various treatment groups. An oligonucleotide probe containing a fluorescent reporter dye, […], at the 3′-end was designed to hybridize to the amplicon defined by two PCR primers. A 3′-blocking phosphate prevents extension of the probe. The reporter dye is released from the probe by the 5′ exonuclease activity of Taq polymerase during the extension phase of PCR reaction. […] The threshold cycle number (Ct), defined as the point where the reporter fluorescence reaches a value greater than 10 times the standard deviation of the baseline, is […] to the amount of amplicon produced from the sample. Since the fluorescence is detected during the exponential phase of the amplification, none of the reaction components are limiting. In each experiment, a control is analyzed that lacks the RNA template to monitor for contamination, and another control is included where the RT step is omitted to eliminate amplification of possible contaminating DNA as the source of the signal. Reactions are optimized to give the greatest fluorescence signal and smallest Ct by titration of magnesium and primer concentrations, and the product is run on an agarose gel to verify the presence of a single band at the predicted molecular weight. […]
Quantitation of the TaqMan results was performed as described by Heid et al., Genome Res. 6:986–994 (1996), with modifications. […]
(In general: Quantitative PCR measures a nucleic acid by following its amplification.)

Series [3] concerns male Sprague/Dawley (SD) rats. Briefly: Hemodynamic assessment (MAP) in rats treated with fluprostenol and/or IFN-γ. The series is classed as in vivo, rat. The following applies: conscious rats, 14 days of treatment (FIG. 5). Here is the method:
Hemodynamic assessment Thirteen days after treatment, rats were anesthetized with intraperitoreal injection of ketamine 80 mg/kg (Aveco Co., Inc., Fort Dodge, Iowa) and xylazine 10 mg/kg (Rugby Laboratories, Inc., Rockville Center, N.Y.). A catheter (PE-10 fused with PE 50) filled with heparin-saline solution (50 U/ml) was implanted into the abdominal aorta, via the right femoral artery, for measurement of mean arterial pressure (MAP) and heart rate (HR). The catheter was exteriorized and fixed at the back of the neck.
One day after catheterization, the arterial catheter was connected to a Model CP 10 pressure transducer (Century Technology Company, Inglewood, Calif., USA) that was coupled to a Grass Model 7 polygraph (Grass Instruments, Quincy, Mass., USA). MAP and HR were measured simultaneously in conscious, unrestrained rats.

For series [4], the system named is male Sprague/Dawley (SD) rats. Briefly: Cardiac hypertrophy induced by fluprostenol in vivo: body and organ weights. Also on record: species or system rat. The text has this:
This pharmacological model tests the ability of IFN-γ to inhibit cardiac hypertrophy induced in rats (e.g. male Wistar or Sprague-Dawley) by subcutaneous injection of fluprostenol (an agonist analog of PGF2α). It is known that rats with pathologic cardiac hypertrophy induced by myocardial infarction have chronically elevated levels of extractable PGF2α in their myocardium. Lai et al, Am. J. Physiol. (Heart Circ. Physiol.) 271:H2197–H2208 (1996). Accordingly, factors that can inhibit the effects of fluprostenol on myocardial growth in vivo are potentially useful for treating cardiac hypertrophy. The effects of IFN-γ on cardiac hypertrophy are determined by measuring the weight of heart, ventricles, and left ventricle (normalized by body weight) relative to fluprostenol-treated rats not receiving IFN-γ. A detailed description of this assay is provided in the examples.
Animals All experimental procedures conformed to the guiding principles of the American Physiology Society, and were approved by Genentech's Institutional Animal Care and Use Committee. The animals used in this study were male Sprague/Dawley (SD) rats (8 weeks of age, Charles River Breeding Laboratories, Inc.). The animals were acclimated to the facility for at least one week before experiments, fed a pelleted rat chow and water ad libitum, and housed in a light and temperature controlled room.
Administration of fluprostenol and/or IFN-γ Rats received subcutaneous injection of fluprostenol (Cayman Chemical, Ann Arbor, Mich.) at 0.15 mg/kg, recombinant mouse IFN-γ (Genentech, Inc., South San Francisco, Calif.) at 0.08 mg/kg, combination of fluprostenol and IFN-γ, or saline vehicle, twice a day for 14 days. In the IFN-γ and fluprostenol+IFN-γ groups, animals were pretreated with IFN-γ for one day. Body weight was measured before and after treatment. A previous study has shown that the dose of fluprostenol used here is the lowest dose which produces a significant cardiac hypertrophy in rats. Lai et al., supra.
Measurement of organ weights Under anesthesia with ketamine/xylazine, the heart, kidney, and spleen were removed, dissected and weighed. The left ventricle was stored at […] for evaluation of gene expression.
Statistical analyisis Results are expressed as mean±SEM. One way analysis of variance (ANOVA) was performed to assess differences in parameters between groups. Significant differences were then subjected to post hoc analysis using Newman-Keuls method; P<0.05 was considered significant.

Series [5] relates to adult rat cardiac myocytes. Briefly: Inhibition of PGF2α-induced spreading response of adult myocytes. The series is classed as cell-based. As for the experimental part: Myocytes were pre-incubated with saline vehicle or IFN-γ (500 U/ml) on day of isolation. A second addition of vehicle or IFN-γ was performed 24h after isolation, along with the addition of either vehicle or PGF2α (10^−7 M). After an additional 72 hr incubation, cells were fixed in glutaraldehyde, stained with eosin Y and viewed by fluorescence microscopy. A, B, C Cardiac myocytes after 4 days in culture: control, PGF2α, and PGF2α+IFN-γ, respectively. D, E, F Histographs showing maximum breadth of rod shaped cardiac myocytes versus percent frequency of breadth occurrence. The maximum breadth of rod-shaped cells was determined by fluorescence microscopy and imaging software. At least 200 rod shaped cells from a single experiment were examined per group.
Myocytes were pre-incubated with saline vehicle or IFN-γ on day of isolation. A second amount of IFN-γ was added 24 hr after isolation, along with the addition of either vehicle or PGF2α (10^−7 M). After an additional 72 hr incubation, cells were fixed in glutaraldehyde, stained with eosin Y and viewed under fluorescence. Quantitation of myocyte morphology: A control, B PGF2α, C PGF2α+IFN-γ (25 U/ml), D PGF2α+IFN-γ (100 U/ml), E PGF2α+IFN-γ (500 U/ml). Histographs showing maximum breadth of rod shaped cardiac myocytes versus percent frequency of breadth occurrence. The maximum breadth of rod-shaped cells was determined by fluorescence microscopy and imaging software. At least 200 rod shaped cells from a single experiment were examined per group.
In this assay, ventricular myocytes are isolated from a single (male Sprague-Dawley) rat, essentially following a modification of the procedure described in detail by Piper et al., “Adult ventricular rat heart muscle cells.” In: Cell Culture Techniques in Heart and Vessel Research, H. M. Piper, ed., Berlin: Spinger-Verlag, 1990, pp. 36–60. This procedure permits the isolation of adult ventricular myocytes and the long-term culture of these cells in the rod-shaped phenotype. […] Piper et al., supra; Lai et al., Am J. Physiol. 1996; 271 (Heart Circ. Phvsiol. 40):H2197–H2208. The inhibition of myocyte spreading induced by PGF2α, or PGF2α analogs, (e.g. fluprostenol) and phenylephrine by various potential inhibitors of cardiac hypertrophy is then tested. A detailed protocol is described in the examples that follow.
Adult myocyte cultures The procedure used for the isolation of ventricular myocytes from adult rats was a modification of a procedure described by Piper et al., supra, and is detailed in Lai et al., supra. For each myocyte preparation, one male Sprague-Dawley rat weighing about 250 g was anesthetized with pentobarbital sodium, and the heart was removed. Extraneous tissue was trimmed from the heart, and it was mounted onto a Langendorff system that was temperature controlled at 37° C. The heart was perfused with about 40 ml of Krebs buffer (110 mM NaCl, 2.6 mM KCl, 1.2 mM KH2PO4, 1.2 mM MgSO4.7H2O, 25 mM NaHCO3 and 11 mM glucose). A solution containing 30 mg of collagenase and 12.5 μl of 100 mM CaCl2 in 50 ml of Krebs buffer was then recirculated through the heart for 30 minutes. The heart was removed from the Langendorff apparatus, and the atria and connective tissues were removed. The ventricles were cut into 2 mm cubes with dissecting scissors, and further digested in a fresh collagenase solution (30 mg collagenase and 400 mg BSA dissolved in Krebs buffer with 12.5 μl of 100 mM CaCl2) for five minutes at 37° C. During the digestion, the tissue suspension was gently band shaken one time per minute. After the digestion, the supernatant was removed and saved, and the remaining tissue was further digested in fresh collagenase solution for an additional five minutes.

[6] abbreviates: s.c. twice a day for 14 days, fluprostenol 0.15 mg/kg, IFN-γ 0.08 mg/kg, mean ± SEM.

Data on seven molecules can be found in patent publication US6989364B1, “Methods for treating cardiac hypertrophy by administering IFN-γ” (Genentech, Inc., priority 1998, dated 2006).

As for `O=C(O)CCC/C=C\C[C@@H]1[C@@H](/C=C/[C@@H](O)COc2cccc(C(F)(F)F)c2)[C@H](O)C[C@@H]1O` (racemic) [fluprostenol, reference compound], the “Lowest dose which produces a significant cardiac hypertrophy in rats” value in series [1] was 0.15 mg/kg. In series [2], the “Abundance of mRNA for α-skeletal actin, collagen I, and natriuretic factor in the heart vs vehicle” value was “increase in the abundance of mRNA”; the “mRNA for sarcoplasmic reticulum calcium ATPase in the heart vs vehicle” value was “significantly reduced”. Further, the “Mean arterial pressure (MAP) compared to vehicle” value in series [3] was “significant decline”. Besides, the “Ratio of heart, ventricular, and left ventricular weights to body weight (FIG. 4)” value in series [4] (14 days, fluprostenol and IFN-γ alone vs vehicle, fluprostenol+IFN-γ vs fluprostenol group) was “significant increase”. Besides, the “BWO, basal levels of body weight” value in series [4] (before treatment, mean ± SEM) is 292.3 ± 2.2 g. In series [4] (setting [6]), the “BW, body weight post treatment” value stood at 381.1 ± 4.4 g; the “HW, heart weight” value is recorded as 1.000 ± .018 g; the “KW, kidney weight” value is reported as 1.397 ± .038 g; the “KW/BW, kidney weight to body weight” value is listed as 3.632 ± .076 g/kg. In series [4] (setting [6]), the “LVW, left ventricular weight” value is recorded as “.740 ± .013 g”; the “SW, spleen weight” value is reported as “.880 ± .048 g”; the “SW/BW, spleen weight to body weight” value is 2.309 ± .130 g/kg; the “VW, ventricular weight” value is “.957 ± .017 g”. In addition, in series [4] (setting [6]), the “ΔBW, BW-BWO” value is given as 91.9 ± 4.0 g.
Regarding IFN-α, the “Ability of other cytokines to inhibit PGF2α induced myocyte spreading” value in series [5] is “could not inhibit the spreading response”.
Still for that read-out and setting: for “IL-1β: other cytokine tested for inhibition of the spreading response” the value was “could not inhibit the spreading response”.
Take “IL-6: other cytokine tested for inhibition of the spreading response”: the “Ability of other cytokines to inhibit PGF2α induced myocyte spreading” value in series [5] is listed as “could not inhibit the spreading response”.
Still for that read-out and setting: next, TNF-α: “could not inhibit the spreading response”.
Consider prostaglandin F2α [PGF2α], for which the “Spreading response of adult myocytes (maximum cell breadth) vs control cells” value in series [5] (0.1 μM, P<0.001) is listed as “induced a significant change in the maximum cell breadth”.

B1: IL-1α: other cytokine tested for inhibition of the spreading response (protein, UniProt P01583 113-271, looked up)
Interleukin-1 alpha: SAPFSFLSNVKYNFMRIIKYEFILNDALNQSIIRANDQYLTAAALHNLDEAVKFDMGAYKSSKDDAKITVILRISKTQLYVTAQDEDQPVLLKEMPEIPKTITGSETNLLFFWETHGTKNYFTSVAHPNLFIATKQDYWVCLAGGPPSITDFQILENQA
On to B1, for which the “Ability of other cytokines to inhibit PGF2α induced myocyte spreading” value in series [5] was “could not inhibit the spreading response”.
